Where a SMILES comes first, the peptide text is derived from it.
Biological target: T1, CathepsinG, from human neutrophils (Homo sapiens, UniProt P08311)
T1 sequence (P08311 21-244): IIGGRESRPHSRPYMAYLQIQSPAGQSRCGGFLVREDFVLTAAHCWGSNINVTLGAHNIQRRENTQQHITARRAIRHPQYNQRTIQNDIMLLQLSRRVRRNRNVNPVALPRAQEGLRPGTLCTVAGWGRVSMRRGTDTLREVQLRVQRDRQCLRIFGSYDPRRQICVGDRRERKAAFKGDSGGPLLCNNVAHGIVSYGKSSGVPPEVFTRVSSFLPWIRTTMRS
Experiment: Enzymatic assay, cathepsin G
Conditions: Cathepsin G IC50

**Q.** For `CC[C@H](C)[C@@H]1NC(=O)[C@@H]2CCCN2C(=O)[C@@H]2CCCN2C(=O)[C@H](CC(=O)O)NC(=O)[C@H](CO)NC(=O)[C@H](CCCCN)NC(=O)[C@H]([C@@H](C)O)NC(=O)[C@@H]2CSSC[C@H](NC1=O)C(=O)N[C@@H](CC(N)=O)C(=O)N1CCC[C@@H]1C(=O)N1CCC[C@H]1C(=O)N[C@@H](CCc1ccccc1)C(=O)N2` [Ex. 27] (HELM PEPTIDE1{[O=C([C@H](CCc1ccccc1)N[*:1])[*:2]].C.T.K.S.D.P.P.I.C.N.[dP].P}$PEPTIDE1,PEPTIDE1,2:R3-10:R3|PEPTIDE1,PEPTIDE1,1:R1-13:R2$$$V2.0), which IC50 is on record?
**A.** Its IC50 is 48 nM.

**Q.** How did the IC50 turn out when `CC[C@H](C)[C@@H]1NC(=O)[C@@H]2CCCN2C(=O)[C@@H]2CCCN2C(=O)[C@H](CC(=O)O)NC(=O)[C@H](CO)NC(=O)[C@H](CCCCN)NC(=O)[C@H]([C@@H](C)O)NC(=O)[C@@H]2CSSC[C@H](NC1=O)C(=O)N[C@@H](CC(=O)O)C(=O)N1CCC[C@@H]1C(=O)N1CCC[C@H]1C(=O)N[C@@H](CCc1ccccc1)C(=O)N2` [Ex. 29] (HELM PEPTIDE1{[O=C([C@H](CCc1ccccc1)N[*:1])[*:2]].C.T.K.S.D.P.P.I.C.D.[dP].P}$PEPTIDE1,PEPTIDE1,2:R3-10:R3|PEPTIDE1,PEPTIDE1,1:R1-13:R2$$$V2.0) was run?
**A.** Its IC50 is 42 nM.

**Q.** For `CC[C@H](C)[C@@H]1NC(=O)[C@@H]2CCCN2C(=O)[C@@H]2CCCN2C(=O)[C@H](CC(=O)O)NC(=O)[C@H](CO)NC(=O)[C@H](CCCCN)NC(=O)[C@H]([C@@H](C)O)NC(=O)[C@@H]2CSSC[C@H](NC1=O)C(=O)N[C@@H](Cc1ccc(O)cc1)C(=O)N1CCC[C@@H]1C(=O)N1CCC[C@H]1C(=O)N[C@@H](Cc1ccc(N)cc1)C(=O)N2` [Ex. 32] (HELM PEPTIDE1{[Nc1ccc(C[C@H](N[*:1])C(=O)[*:2])cc1].C.T.K.S.D.P.P.I.C.Y.[dP].P}$PEPTIDE1,PEPTIDE1,2:R3-10:R3|PEPTIDE1,PEPTIDE1,1:R1-13:R2$$$V2.0), which IC50 is on record?
**A.** The IC50 was 52 nM.

**Q.** `CC[C@H](C)[C@@H]1NC(=O)[C@@H]2CCCN2C(=O)[C@@H]2CCCN2C(=O)[C@H](CC(=O)O)NC(=O)[C@H](CO)NC(=O)[C@H](CCCCN)NC(=O)[C@H]([C@@H](C)O)NC(=O)[C@@H]2CSSC[C@H](NC1=O)C(=O)N[C@@H](CC(N)=O)C(=O)N1CCC[C@@H]1C(=O)N1CCC[C@H]1C(=O)N[C@@H](CC1CCCCC1)C(=O)N2` [Ex. 33] (HELM PEPTIDE1{[Cha].C.T.K.S.D.P.P.I.C.N.[dP].P}$PEPTIDE1,PEPTIDE1,2:R3-10:R3|PEPTIDE1,PEPTIDE1,1:R1-13:R2$$$V2.0) was tested. Which IC50 did it give?
**A.** The IC50 was 45 nM.

**Q.** Which IC50 does the source give for `CC[C@H](C)[C@@H]1NC(=O)[C@@H]2CCCN2C(=O)[C@@H]2CCCN2C(=O)[C@H](CC(=O)O)NC(=O)[C@H](CO)NC(=O)[C@H](CCCCN)NC(=O)[C@H]([C@@H](C)O)NC(=O)[C@@H]2CSSC[C@H](NC1=O)C(=O)N[C@@H]([C@@H](C)O)C(=O)N1CCC[C@@H]1C(=O)N1CCC[C@H]1C(=O)N[C@@H](CC1CCCCC1)C(=O)N2` [Ex. 34] (HELM PEPTIDE1{[Cha].C.T.K.S.D.P.P.I.C.T.[dP].P}$PEPTIDE1,PEPTIDE1,2:R3-10:R3|PEPTIDE1,PEPTIDE1,1:R1-13:R2$$$V2.0) here?
**A.** The IC50 was 56 nM.

**Q.** With `CC[C@H](C)[C@@H]1NC(=O)[C@@H]2CCCN2C(=O)[C@@H]2CCCN2C(=O)[C@H](CC(=O)O)NC(=O)[C@H](CO)NC(=O)[C@H](CCCCN)NC(=O)[C@H]([C@@H](C)O)NC(=O)[C@@H]2CSSC[C@H](NC1=O)C(=O)N[C@@H](CC(=O)O)C(=O)N1CCC[C@@H]1C(=O)N1CCC[C@H]1C(=O)N[C@@H](CC1CCCCC1)C(=O)N2` [Ex. 35] (HELM PEPTIDE1{[Cha].C.T.K.S.D.P.P.I.C.D.[dP].P}$PEPTIDE1,PEPTIDE1,2:R3-10:R3|PEPTIDE1,PEPTIDE1,1:R1-13:R2$$$V2.0) as the molecule, how does the IC50 read?
**A.** Its IC50 is 54 nM.
